In patent publication US7572799B2, “Pyrazolo[4,3-d]pyrimidines as Phosphodiesterase Inhibitors” (Pfizer Inc, priority 2003, dated 2009):
Read-outs that look alike come from different tables or passages of the source.

Molecular target: PDE-5 (UniProt O76074)
Assay: In vitro PDE inhibitory activity against PDE5 (batch method or scintillation proximity assay)
Format: biochemical, human
Settings: representative compounds
Description: The compounds of the invention are inhibitors of cyclic guanylate monophosphate (cGMP)-specific phosphodiesterase type 5 (PDE-5 inhibitors).
The required PDE enzymes can be isolated from a variety of sources, including human corpus cavernosum, human and rabbit platelets, human cardiac ventricle, human skeletal muscle and bovine retina, essentially by a modification of the method of Thompson, W J et al.; Biochemistry 18(23), 5228-5237, 1979, as described by Ballard S A et al.; J. Urology 159(6), 2164-2171, 1998. In particular, cGMP-specific PDE5 and cGMP-inhibited cAMP PDE3 can be obtained from human corpus cavernosum tissue, human platelets or rabbit platelets; cGMP-stimulated PDE2 was obtained from human corpus cavernosum; calcium/calmodulin (Ca/CAM)-dependent PDE1 from human cardiac ventricle; cAMP-specific PDE4 from human skeletal muscle; and photoreceptor PDE6 from bovine retina. Phosphodiesterases 7-11 can be generated from full length human recombinant clones transfected into SF9 cells.
Assays can be performed either using a modification of the “batch”method of Thompson W J and Appleman M M; Biochemistry 10(2), 311-316, 1971, essentially as described by Ballard S A et al.; J. Urology 159(6), 2164-2171, 1998, or using a scintillation proximity assay for the direct detection of [^3H]-labelled AMP/GMP using a modification of the protocol described by Amersham plc under product code TRKQ7090/7100. In summary, for the scintillation proximity assay the effect of PDE inhibitors was investigated by assaying a fixed amount of enzyme in the presence of varying inhibitor concentrations and low substrate, (cGMP or cAMP in a 3:1 ratio unlabelled to [^3H]-labeled at a concentration of ˜⅓ Km, or less) such that IC50≅Ki. The final assay volume was made up to 100 μl with assay buffer [20 mM Tris-HCl pH 7.4, 5 mM MgCl2, 1 mg/ml bovine serum albumin]. Reactions were initiated with enzyme, incubated for 30-60 min at 30° C. to give <30% substrate turnover and terminated with 50 μl yttrium silicate SPA beads (containing 3 mM of the respective unlabelled cyclic nucleotide for PDEs 9 and 11).

CCOCCn1nc(C(=O)O)c2nc(N(C)C(C)C)nc(Nc3ccc(F)cn3)c21 [Example 81, 1-(2-Ethoxyethyl)-7-(5-fluoropyridin-2-ylamino)-5-(N-isopropyl-N-methylamino)-1H-pyrazolo[4,3-d]pyrimidine-3-carboxylic acid]
IC50 (read-out: IC50): 16.7 nM

CCOCCn1nc(C(=O)O)c2nc(N(C)C)nc(Nc3cc(C)ccn3)c21 [Example 14]
IC50 (read-out: IC50): 8.75 nM

CCOCCn1nc(-c2nnn[nH]2)c2nc(N(C)C)nc(Nc3cc(C)ccn3)c21 [Example 80]
IC50 (read-out: IC50): 2.88 nM

CCOCCn1nc(C(=O)NS(C)(=O)=O)c2nc(N(C)C(C)C)nc(Nc3cc(C)ccn3)c21 [Example 113, N-[1-(2-Ethoxyethyl)-5-(N-isopropyl-N-methylamino)-7-(4-methylpyridin-2-ylamino)-1H-pyrazolo[4,3-d]pyrimidine-3-carbonyl]methanesulfonamide]
IC50 (read-out: IC50): 0.27 nM

CCOCCn1nc(C(=O)O)c2nc(N(C)C(C)C)nc(Nc3cc(C)ccn3)c21 [Example 110, 1-(2-Ethoxyethyl)-5-(N-isopropyl-N-methylamino)-7-(4-methylpyridin-2-ylamino)-1H-pyrazolo[4,3-d]pyrimidine-3-carboxylic acid]
IC50 (read-out: IC50): 0.564 nM

CCOCCn1nc(C(=O)O)c2nc(N(C)C)nc(Nc3cc(C)ccc3F)c21 [Example 100]
IC50 (read-out: IC50): 3.48 nM

CCOCCn1nc(C(=O)O)c2nc(N(C)C(C)C)nc(Nc3cccc(F)c3)c21 [Example 88]
IC50 (read-out: IC50): 21.3 nM

CCOCCn1nc(C(=O)O)c2nc(N(C)C(C)C)nc(NC3CCC3)c21 [Example 32]
IC50: 100 nM

Cc1ccnc(Nc2nc(N(C)C(C)C)nc3c(C(=O)O)nn(CCOCC4CC4)c23)c1 [Example 108]
IC50 (read-out: IC50): 18.3 nM

CCOCCn1nc(C(=O)O)c2nc(N(CC)CC)nc(N[C@@H]3CCOC3)c21 [Example 68]
IC50: 100 nM

CCOCCn1nc(C(=O)OCC)c2nc(N(C)CC)nc(Nc3cc(C)ccn3)c21 [Example 7, Ethyl 1-(2-ethoxyethyl)-5-(N-ethyl-N-methylamino)-7-(4-methylpyridin-2-ylamino)-1H pyrazolo[4,3-d]pyrimidine-3-carboxylate]
IC50 (read-out: IC50): 0.082 nM

CCN(C)c1nc(Nc2cc(C)ccn2)c2c(n1)c(C(=O)O)nn2CCOCC1CC1 [Example 109]
IC50 (read-out: IC50): 9.7 nM

CCN(C)c1nc(Nc2cc(C)ccn2)c2c(n1)c(C(=O)NS(C)(=O)=O)nn2CCO [Example 185, 5-[Ethyl(methyl)amino]-1-(2-hydroxyethyl)-7-[(4-methylpyridin-2-yl)amino]-N-(methylsulfonyl)-1H-pyrazolo[4,3-d]pyrimidine-3-carboxamide]
IC50 (read-out: IC50): 11.5 nM

CCOCCn1nc(-c2nc(=O)o[nH]2)c2nc(N(C)CC)nc(Nc3cc(C)ccn3)c21 [Example 76]
IC50 (read-out: IC50): 0.465 nM

CCOCCn1nc(C(=O)O)c2nc(N(C)C(C)C)nc(Nc3ccccc3)c21 [Example 95]
IC50 (read-out: IC50): 9.11 nM

CCOCCn1nc(C(=O)O)c2nc(N(C)C)nc(NC3CCC3)c21 [Example 33]
IC50: 100 nM

CCOCCn1nc(C(=O)O)c2nc(N(C)C)nc(Nc3cccc(C)n3)c21 [Example 39]
IC50 (read-out: IC50): 57.2 nM

CO[C@@H](C)Cn1nc(C(=O)O)c2nc(N(C)C(C)C)nc(Nc3cc(C)ccn3)c21 [Example 135, 5-[Isopropyl(methyl)amino]-1-[(2S)-2-methoxypropyl]-7-[(4-methylpyridin-2-yl)amino]-1H-pyrazolo[4,3-d]pyrimidine-3-carboxylic acid]
IC50 (read-out: IC50): 7.7 nM

CCOCCn1nc(C(=O)O)c2nc(N(C)CC)nc(Nc3cc(C)nc(C)n3)c21 [Example 74]
IC50 (read-out: IC50): 100 nM

CCOCCn1nc(C(=O)O)c2nc(N(C)CC)nc(Nc3cc(C)ccc3F)c21 [Example 101]
IC50 (read-out: IC50): 8.45 nM

CCOCCn1nc(C(=O)OC)c2nc(N(C)CC)nc(Nc3ccc(F)c(C)c3)c21 [Example 116, Methyl 1-(2-ethoxyethyl)-5-[ethyl(methyl)amino]-7-[(4-fluoro-3-methylphenyl)amino]-1H-pyrazolo[4,3-d]pyrimidine-3-carboxylate]
IC50 (read-out: IC50): 0.032 nM

CCOCCn1nc(C(=O)O)c2nc(N(C)C(C)C)nc(Nc3ccncn3)c21 [Example 28]
IC50 (read-out: IC50): 11.6 nM

Cc1ccnc(Nc2nc(N(C)C)nc3c(C(=O)O)nn(CC4CCOCC4)c23)c1 [Example 57]
IC50: 100 nM

CCOCCn1nc(C(=O)O)c2nc(N(C)C(C)CC)nc(Nc3cc(C)ccn3)c21 (stereo not shown) [Example 50]
IC50 (read-out: IC50): 1.66 nM

CCOCCn1nc(C(=O)O)c2nc(N(C)CC)nc(Nc3cc(C)ncn3)c21 [Example 120]
IC50 (read-out: IC50): 1.12 nM

CCCOCCn1nc(C(=O)NS(C)(=O)=O)c2nc(N(C)CC)nc(Nc3cc(C)ccn3)c21 [Example 171]
IC50 (read-out: IC50): 1.21 nM

CCN(C)c1nc(Nc2cc(C)ccn2)c2c(n1)c(C(=O)O)nn2CCOC(C)C [Example 62]
IC50 (read-out: IC50): 1.85 nM

CCN(CC)c1nc(Nc2cc(C)ccn2)c2c(n1)c(C(=O)O)nn2C[C@@H](C)OC [Example 66]
IC50 (read-out: IC50): 13.5 nM

CCOCCn1nc(C(=O)O)c2nc(N(C)C(C)C)nc(Nc3cccc(C)n3)c21 [Example 99]
IC50 (read-out: IC50): 2.45 nM

CCOCCn1nc(C(=O)O)c2nc(N(C)C(C)C)nc(Nc3cc(CC)ccn3)c21 [Example 36]
IC50 (read-out: IC50): 0.708 nM

Cc1ccnc(Nc2nc(N(C)C)nc3c(C(=O)O)nn(CC4CCCCO4)c23)c1 (stereo not shown) [Example 59]
IC50: 43.6 nM

CCOCCn1nc(C(=O)OC)c2nc(N3C[C@@H]4C[C@H]3CN4)nc(Nc3cc(C)ccn3)c21 [Example 4]
IC50 (read-out: IC50): 2.62 nM

CCCN(C)c1nc(NC2CCCCC2)c2c(n1)c(C(=O)O)nn2CCOCC [Example 30]
IC50: 35.8 nM

CCOCCn1nc(C(=O)OC)c2nc(N(C)C)nc(Nc3cc(C)ccn3)c21 [Example 5]
IC50 (read-out: IC50): 0.943 nM

Cc1cccc(Nc2nc(N(C)C(C)C)nc3c(C(=O)O)nn(CCOCC(F)(F)F)c23)c1 [Example 138]
IC50 (read-out: IC50): 0.065 nM

CCN(C)c1nc(Nc2cc(C)ccn2)c2c(n1)c(C(=O)O)nn2CCOCC(F)(F)F [Example 127, 5-[Ethyl(methyl)amino]-7-[(4-methylpyridin-2-yl)amino]-1-[2-(2,2,2-trifluoroethoxy)ethyl]-1H-pyrazolo[4,3-d]pyrimidine-3-carboxylic acid]
IC50 (read-out: IC50): 6.34 nM

CCN(CC)c1nc(Nc2cc(C)ccn2)c2c(n1)c(C(=O)NS(C)(=O)=O)nn2CCOCCCF [Example 177]
IC50 (read-out: IC50): 0.17 nM

CCOCCn1nc(C(=O)O)c2nc(N(C)C(C)C)nc(NC3CCCC3)c21 [Example 31]
IC50: 43.4 nM

CCCN(CC1CC1)c1nc(Nc2cc(C)ccn2)c2c(n1)c(C(=O)O)nn2CCOCC [Example 49]
IC50 (read-out: IC50): 4.92 nM

CCOCCn1nc(C(=O)O)c2nc(N(C)C(C)C)nc(Nc3ccccc3F)c21 [Example 104]
IC50 (read-out: IC50): 9.69 nM

CCOCCn1nc(C(=O)NS(C)(=O)=O)c2nc(N(C)CC)nc(Nc3cc(CO)ccn3)c21 [Example 153]
IC50 (read-out: IC50): 0.398 nM

CCOCCn1nc(C(=O)OC)c2nc(N(C)C(C)C)nc(Nc3cccc(C)n3)c21 [Example 6, Methyl 1-(2-ethoxyethyl)-5-(N-isopropyl-N-methylamino)-7-(6-methylpyridin-2-ylamino) -1H-pyrazolo[4,3-d]pyrimidine-3-carboxylate]
IC50 (read-out: IC50): 2.89 nM

CCOCCn1nc(C(=O)O)c2nc(N(CC)CCOC)nc(Nc3cc(C)ccn3)c21 [Example 52]
IC50 (read-out: IC50): 3.4 nM

CCOCCn1nc(C(=O)O)c2nc(N(C)C(C)C)nc(NC3CCOCC3)c21 [Example 83]
IC50 (read-out: IC50): 27.8 nM

CCOCCn1nc(C(=O)O)c2nc(N(C)C(C)C)nc(Nc3ccc(F)c(C)c3)c21 [Example 85]
IC50 (read-out: IC50): 0.055 nM

CCNc1nc(Nc2cc(C)ccn2)c2c(n1)c(C(=O)O)nn2CCOC(C)C [Example 63]
IC50 (read-out: IC50): 4.58 nM
